# Earlier results as cited in patent publication US20240374519A1, “COMPOSITIONS FOR SUPPLEMENTING PRODUCTS WITH THERAPEUTIC AGENTS AND METHODS OF USE THEREOF” (DISRUPTION LABS, INC., priority 2021, published 2024).
structure (smiles),measurement,value
C=C(C)[C@@H]1CCC(C)=C[C@H]1c1c(O)cc(CCCCC)cc1O [Cannabidiol],log P,> 5
